One series addresses T1, human TRPA1 ion channel (Homo sapiens, UniProt O75762).
T1 construct: host or cells: HEK293
As to the kind of experiment: Assay A: TRPA1 assay (FLIPR calcium, AITC agonism). To be noted: read-out: hTRPA1 IC50. It counts as cell-based. On the procedure:
A human HEK293 cell line over-expressing the human TRPA1 ion channel (Perkin Elmer, Product No. AX-004-PCL) is used as a test system for compound efficacy and potency. Compound activity is determined by measuring the effect of compounds on intracellular calcium concentration induced by AITC (Allylisothiocyanat) agonism in a FLIPRtetra system (Molecular Devices).
The cells are obtained as frozen cells in cryo-vials and stored until use at −150° C.
Cells are grown in culture medium (MEM/EBSS medium with 10% FCS and 0.4 mg/ML Geneticin). […] For sub-culturing cells are detached from flasks by Versene. At the day before the assay, cells are detached, washed twice with medium (MEM/EBSS medium with 10% FCS) and 20000 cells in 20 μl/well are seeded to Poly D-Lysin biocoated 384-well plates (black, clear bottom, Cat. 356697) from Corning. Plates are incubated for 24 hours at 37° C./5% CO2 before use in the assay.
The test compounds are dissolved in 100% DMSO at a concentration of 10 mM and in a first step diluted in DMSO to a concentration of 5 mM, followed by serial dilution steps in 100% DMSO. Dilution factor and number of dilution steps may vary according to needs. Typically 8 different concentrations by 1:5 dilutions are prepared, further intermediate dilutions (1:20) of the substances are carried out with HBSS/HEPES buffer (1×HEPES, Cat. 14065 from Gibco, 20 mM HEPES, Cat. 83264 from SIGMA, 0.1% BSA Cat. 11926 from Invitrogen, pH 7.4
At the assay day cells are washed 3× with assay puffer, 20 μL buffer remaining in the wells after washing. 10 μL Ca6 kit (Cat. R8191 MolecularDevices) loading buffer in HBSS/HEPES is added to the cells and the plates are incubated with lid for 120 minutes at 37°/5% CO2. 10 μL of compound or controls in HBSS/HEPES buffer/5% DMSO from the intermediate dilution plate are carefully added to the wells. […] Finally 10 μL of the agonist AITC 50 μM dissolved in HBSS/HEPES buffer/0.05% DMSO (final concentration 10 μM) is added to the wells followed by an additional read on the FLIPRtetra device for 10 minutes. The area under the signal curve (AUC) after AITC addition is used for IC50/% inhibition calculations Data evaluation and calculation:
Each assay microtiter plate contains wells with vehicle (1% DMSO) controls instead of compound as controls for AITC induced luminescence (100% CTL; high controls) and wells with vehicle controls without AITC as controls for non-specific changes in luminescence (0% CTL; low controls).
The analysis of the data is performed by the calculation of the area under signal curve of the individual wells. Based on this values the % value for the measurement of each substance concentration is calculated (AUC(sample)−AUC(low))*100/(AUC(high)−AUC(low)) using MegaLab software (in house development). The IC50 values are calculated from the % control values using MegaLab software. Calculation: [y=(a−d)/(1+(x/c)^b)+d], a=low value, d=high value; x=conc M; c=IC50 M; b=hill; y=% ctrl

Series [1] in a line: Assay B: Microsomal clearance. It counts as in vitro ADME, human. To be noted: pooled liver microsomes 1 mg/ml, test compound 1 μM, 37° C., NADPH. On the procedure:
Assay B: Microsomal Clearance:
The metabolic degradation of the test compound is assayed at 37° C. with pooled liver microsomes. The final incubation volume of 100 μl per time point contains TRIS buffer pH 7.6 at RT (0.1 M), magnesium chloride (5 mM), microsomal protein (1 mg/ml) and the test compound at a final concentration of 1 μM.
Following a short preincubation period at 37° C., the reactions are initiated by addition of beta-nicotinamide adenine dinucleotide phosphate, reduced form (NADPH, 1 mM) and terminated by transferring an aliquot into solvent after different time points (0, 5, 15, 30, 60 min). Additionally, the NADPH-independent degradation is monitored in incubations without NADPH, terminated at the last time point. The [%] remaining test compound after NADPH independent incubation is reflected by the parameter c(control) (metabolic stability). The quenched incubations are pelleted by centrifugation (10000 g, 5 min).
An aliquot of the supernatant is assayed by LC-MS/MS for the amount of parent compound. The half-life (t½ INVITRO) is determined by the slope of the semilogarithmic plot of the concentration-time profile.
The intrinsic clearance (CL_[…]) is calculated by considering the amount of protein in the incubation: CL_[…] [μl/min/mg protein]=(Ln 2/(half-life [min]*protein content [mg/ml]))*1000 CL_[…]_INVIVO [ml/min/kg]=(CL_[…] [μL/min/mg protein]×MPPGL [mg protein/g liver]×liver factor [g/kg bodyweight])/1000 Qh[%]=CL[ml/min/kg]/hepatic blood flow [ml/min/kg])
(§1) Hepatocellularity, human: 120×10e6 cells/g liver
(§2) Liver factor, human: 25.7 g/kg bodyweight
(§3) Blood flow, human: 21 ml/(min×kg)
(In general: Liver microsomes are vesicles of endoplasmic reticulum, rich in cytochrome P450 enzymes.)

Series [2] in a line: Assay C: Hepatocyte clearance. It counts as in vitro ADME, human. To be noted: hepatocyte suspension, 5% species serum, test compound 1 μM, up to 6 h. On the procedure: Assay C: Hepatocyte Clearance
The metabolic degradation of the test compound is assayed in a hepatocyte suspension. Hepatocytes (cryopreserved) are incubated in Dulbecco's modified eagle medium (supplemented with 3.5 μg glucagon/500 mL, 2.5 mg insulin/500 mL and 3.75 mg/500 mL hydrocortison) containing 5% species serum.
The cells are incubated for six hours (incubator, orbital shaker) and samples (25 μl) are taken at 0, 0.5, 1, 2, 4 and 6 hours. Samples are transferred into acetonitrile and pelleted by centrifugation (5 min). The supernatant is transferred to a new 96-deepwell plate, evaporated under nitrogen and resuspended.
Decline of parent compound is analyzed by HPLC-MS/MS
CLint is calculated as follows CL_[…]=Dose/AUC=(CO/CD)/(AUD+clast/k)×1000/60. C0: initial concentration in the incubation [μM], CD: cell density of vital cells [10e6 cells/mL], AUD: area under the data [μM×h], clast: concentration of last data point [μM], k: slope of the regression line for parent decline [h−1].
The calculated in vitro hepatic intrinsic clearance can be scaled up to the intrinsic in vivo hepatic Clearance and used to predict hepatic in vivo blood clearance (CL) by the use of a liver model (well stirred model). CL_[…]_INVIVO [ml/min/kg]=(CL_[…] [μL/min/10e6 cells]×hepato-cellularity [10e6 cells/g liver]×liver factor [g/kg bodyweight])/1000 CL[ml/min/kg]=CL_[…]_INVIVO [ml/min/kg]×hepatic blood flow [ml/min/kg]/(CL_[…]_INVIVO [ml/min/kg]+hepatic blood flow [ml/min/kg]) Qh[%]=CL[ml/min/kg]/hepatic blood flow [ml/min/kg])
as §1, §2, §3

Where only a bound is given, the exact number is not on record here.

T1 sequence (O75762 whole entry): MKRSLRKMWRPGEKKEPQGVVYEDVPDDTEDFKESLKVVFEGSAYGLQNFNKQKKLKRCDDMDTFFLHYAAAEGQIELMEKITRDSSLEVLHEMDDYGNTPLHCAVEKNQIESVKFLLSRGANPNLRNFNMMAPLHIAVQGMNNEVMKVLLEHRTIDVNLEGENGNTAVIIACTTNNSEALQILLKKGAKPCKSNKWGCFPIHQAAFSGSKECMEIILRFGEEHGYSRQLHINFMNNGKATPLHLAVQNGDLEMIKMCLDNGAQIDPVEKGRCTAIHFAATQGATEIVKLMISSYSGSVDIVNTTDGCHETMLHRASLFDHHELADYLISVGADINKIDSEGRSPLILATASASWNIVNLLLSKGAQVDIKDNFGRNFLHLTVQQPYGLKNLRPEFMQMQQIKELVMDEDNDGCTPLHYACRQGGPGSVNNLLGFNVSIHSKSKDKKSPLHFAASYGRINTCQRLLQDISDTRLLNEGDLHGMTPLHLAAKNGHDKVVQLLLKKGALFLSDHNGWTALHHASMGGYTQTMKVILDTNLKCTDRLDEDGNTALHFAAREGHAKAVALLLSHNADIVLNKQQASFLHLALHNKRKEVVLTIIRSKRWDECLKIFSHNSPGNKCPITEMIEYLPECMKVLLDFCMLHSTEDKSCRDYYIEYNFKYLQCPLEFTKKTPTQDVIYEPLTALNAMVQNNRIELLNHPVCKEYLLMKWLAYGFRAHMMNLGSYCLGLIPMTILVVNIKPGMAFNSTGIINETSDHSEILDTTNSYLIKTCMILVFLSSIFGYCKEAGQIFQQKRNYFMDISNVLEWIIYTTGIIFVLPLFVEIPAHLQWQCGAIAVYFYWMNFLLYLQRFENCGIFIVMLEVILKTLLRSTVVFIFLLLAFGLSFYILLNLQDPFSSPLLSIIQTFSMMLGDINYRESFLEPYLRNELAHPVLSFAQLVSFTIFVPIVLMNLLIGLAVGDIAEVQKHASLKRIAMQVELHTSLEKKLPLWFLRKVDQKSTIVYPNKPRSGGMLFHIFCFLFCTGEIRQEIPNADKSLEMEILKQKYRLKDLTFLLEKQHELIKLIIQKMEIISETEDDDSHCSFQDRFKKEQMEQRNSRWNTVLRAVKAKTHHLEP

In the case of `Cn1c(=O)c(C(N)=O)cn(Cc2nc(C[C@H](O)c3cc4ccc(F)cc4s3)no2)c1=O` [Example 3], at human TRPA1 ion channel, the IC50 is 8 nM. For the same molecule, in series [1], the “human LM [% Qh]” value is 43 % Qh. For the same molecule, in series [2], the “human Hepatocytes [% Qh]” value came to 17 % Qh.
For `Cn1c(=O)c(C(N)=O)cn(Cc2nc(C[C@H](O)c3cc4cc(F)ccc4o3)no2)c1=O` [Example 5] the same measures were 33 nM, less than 23 % Qh and 15 % Qh.
For `Cn1c(=O)c(C(N)=O)cn(Cc2nc(C[C@H](O)c3cc4ccccc4s3)no2)c1=O` [Example 2] the same measures were 6 nM, less than 23 % Qh and 24 % Qh.
For `Cn1c(=O)c(C(N)=O)cn(Cc2nc(C[C@H](O)c3ccc(I)cc3)no2)c1=O` [Example 6] the same measures were 57 nM, 24 % Qh and 17 % Qh.
Consider `Cc1ccc([C@@H](O)Cc2noc(Cn3cc(C(N)=O)c(=O)n(C)c3=O)n2)cc1` [Example 7], for which, at human TRPA1 ion channel, the IC50 worked out at 84 nM. In addition, the “human LM [% Qh]” value in series [1] is less than 23 % Qh. Moreover, in series [2], the “human Hepatocytes [% Qh]” value was 8 % Qh.
The like results for `Cn1c(=O)c(C(N)=O)cn(Cc2nc(C[C@H](O)c3cc4cc(Cl)ccc4o3)no2)c1=O` [Example 4] were, in that order, 15 nM, less than 23 % Qh and 21 % Qh.
Consider `Cn1c(=O)c(C(N)=O)cn(Cc2nc(C[C@H](O)c3ccc(Cl)cc3)no2)c1=O` [Example 1, 1-({3-[(2S)-2-(4-chlorophenyl)-2-hydroxyethyl]-1,2,4-oxadiazol-5-yl}methyl)-3-methyl-2,4-dioxo-1,2,3,4-tetrahydropyrimidine-5-carboxamide], for which the IC50 at human TRPA1 ion channel came to 38 nM. The “human LM [% Qh]” value in series [1] was less than 23 % Qh. Also, the “human Hepatocytes [% Qh]” value in series [2] is reported as 15 % Qh.

The term IC50 denotes the point on the concentration scale where inhibition reaches its midpoint.

(Values after patent US11858921B2, “Uracil derivatives as TRPA1 inhibitors” (Boehringer Ingelheim International GmbH, priority 2021, dated 2024).)
